Test results as given in ChEMBL document CHEMBL5465560, “Selectivity Literature for EUbOPEN Chemogenomic Library” (2024).

How the values were obtained:
[1] = target: T1, Testis-specific serine/threonine-protein kinase 1 (Homo sapiens) (UniProt Q9BXA7); experiment: Selectivity interaction (KinomeScan (DiscoverX)) EUB0000607a TSSK1A; conditions: at 10 µM
T1 sequence (whole entry): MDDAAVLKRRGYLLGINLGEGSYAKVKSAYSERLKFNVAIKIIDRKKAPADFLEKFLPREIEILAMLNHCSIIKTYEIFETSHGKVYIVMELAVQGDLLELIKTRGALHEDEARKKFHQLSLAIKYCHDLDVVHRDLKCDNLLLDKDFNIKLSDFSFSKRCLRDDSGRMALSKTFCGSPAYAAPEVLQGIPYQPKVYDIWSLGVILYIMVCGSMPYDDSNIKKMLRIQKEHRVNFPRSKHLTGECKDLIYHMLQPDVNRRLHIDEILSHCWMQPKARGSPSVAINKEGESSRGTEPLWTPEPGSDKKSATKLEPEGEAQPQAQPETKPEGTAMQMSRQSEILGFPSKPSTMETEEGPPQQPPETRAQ

[2] = target: Serine/threonine-protein kinase PAK 6 (Homo sapiens) (UniProt Q9NQU5); experiment: Selectivity interaction (ProQinase) EUB0000171b PAK6
Chain of Serine/threonine-protein kinase PAK 6 (Homo sapiens) (Q9NQU5 whole entry, looked up): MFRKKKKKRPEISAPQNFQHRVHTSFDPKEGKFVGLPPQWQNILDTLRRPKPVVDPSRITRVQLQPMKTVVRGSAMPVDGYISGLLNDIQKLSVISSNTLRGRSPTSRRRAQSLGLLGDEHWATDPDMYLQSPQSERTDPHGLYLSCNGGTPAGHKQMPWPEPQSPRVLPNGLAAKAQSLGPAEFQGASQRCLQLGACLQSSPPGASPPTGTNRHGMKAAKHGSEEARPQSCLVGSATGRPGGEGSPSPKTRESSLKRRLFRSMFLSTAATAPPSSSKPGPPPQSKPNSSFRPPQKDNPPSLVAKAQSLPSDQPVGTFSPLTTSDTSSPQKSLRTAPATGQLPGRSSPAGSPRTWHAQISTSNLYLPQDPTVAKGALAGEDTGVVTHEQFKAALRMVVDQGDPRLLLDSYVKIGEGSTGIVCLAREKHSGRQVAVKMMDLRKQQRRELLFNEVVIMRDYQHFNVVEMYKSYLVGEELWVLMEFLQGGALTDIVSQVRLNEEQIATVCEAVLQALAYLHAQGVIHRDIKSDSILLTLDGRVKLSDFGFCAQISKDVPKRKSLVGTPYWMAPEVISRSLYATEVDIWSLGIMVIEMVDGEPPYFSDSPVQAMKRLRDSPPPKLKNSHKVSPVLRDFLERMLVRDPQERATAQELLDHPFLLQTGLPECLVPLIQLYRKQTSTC

[3] = target: T1, Testis-specific serine/threonine-protein kinase 1 (Homo sapiens); experiment: Selectivity interaction (KinomeScan (DiscoverX)) EUB0000695a TSSK1B; conditions: at 100 nM
[4] = target: Dual specificity testis-specific protein kinase 1 (Homo sapiens) (UniProt Q15569); experiment: Selectivity interaction (KinomeScan (DiscoverX)) EUB0000695a TESK1; conditions: at 100 nM
Chain of Dual specificity testis-specific protein kinase 1 (Homo sapiens) (Q15569 whole entry, looked up): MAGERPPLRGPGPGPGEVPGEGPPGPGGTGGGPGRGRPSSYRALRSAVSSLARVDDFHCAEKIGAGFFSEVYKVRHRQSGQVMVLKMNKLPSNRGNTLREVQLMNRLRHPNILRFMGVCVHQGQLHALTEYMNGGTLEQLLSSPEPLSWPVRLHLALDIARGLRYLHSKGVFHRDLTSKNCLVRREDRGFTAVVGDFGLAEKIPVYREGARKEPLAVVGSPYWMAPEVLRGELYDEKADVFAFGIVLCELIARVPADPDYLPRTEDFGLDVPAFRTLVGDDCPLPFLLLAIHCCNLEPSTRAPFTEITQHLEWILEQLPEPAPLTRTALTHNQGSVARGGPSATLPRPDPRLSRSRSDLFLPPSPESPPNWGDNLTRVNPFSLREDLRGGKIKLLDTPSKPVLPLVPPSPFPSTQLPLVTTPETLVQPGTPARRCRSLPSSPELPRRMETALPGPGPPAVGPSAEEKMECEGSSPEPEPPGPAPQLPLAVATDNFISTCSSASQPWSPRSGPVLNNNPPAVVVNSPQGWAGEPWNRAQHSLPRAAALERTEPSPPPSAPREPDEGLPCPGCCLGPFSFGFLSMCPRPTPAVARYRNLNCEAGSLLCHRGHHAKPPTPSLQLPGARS

[5] = target: RAC-gamma serine/threonine-protein kinase (Homo sapiens, UniProt Q9Y243); experiment: Selectivity interaction (Kinase panel (DSF assay)) EUB0001559a AKT3
Chain of RAC-gamma serine/threonine-protein kinase (Q9Y243 whole entry): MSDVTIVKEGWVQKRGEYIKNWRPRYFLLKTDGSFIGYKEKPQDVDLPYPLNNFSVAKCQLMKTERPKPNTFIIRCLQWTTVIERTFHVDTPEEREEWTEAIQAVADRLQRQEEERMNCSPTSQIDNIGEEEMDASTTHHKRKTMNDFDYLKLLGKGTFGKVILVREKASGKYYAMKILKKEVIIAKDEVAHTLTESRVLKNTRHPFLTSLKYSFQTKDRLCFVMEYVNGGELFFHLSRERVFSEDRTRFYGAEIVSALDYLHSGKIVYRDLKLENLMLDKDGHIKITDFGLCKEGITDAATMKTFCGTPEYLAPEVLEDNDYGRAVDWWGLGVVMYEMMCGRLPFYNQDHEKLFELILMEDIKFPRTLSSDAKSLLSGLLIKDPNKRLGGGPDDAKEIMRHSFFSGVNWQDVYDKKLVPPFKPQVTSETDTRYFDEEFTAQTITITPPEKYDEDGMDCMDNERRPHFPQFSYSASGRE

Focal adhesion kinase 1 = Focal adhesion kinase 1 (Homo sapiens, UniProt Q05397); experiment: Selectivity interaction (KinaseProfiler screening (Millipore)) EUB0000601a PTK2; conditions: at 3 µM
Chain of Focal adhesion kinase 1 (Q05397 2-1052 limits assumed): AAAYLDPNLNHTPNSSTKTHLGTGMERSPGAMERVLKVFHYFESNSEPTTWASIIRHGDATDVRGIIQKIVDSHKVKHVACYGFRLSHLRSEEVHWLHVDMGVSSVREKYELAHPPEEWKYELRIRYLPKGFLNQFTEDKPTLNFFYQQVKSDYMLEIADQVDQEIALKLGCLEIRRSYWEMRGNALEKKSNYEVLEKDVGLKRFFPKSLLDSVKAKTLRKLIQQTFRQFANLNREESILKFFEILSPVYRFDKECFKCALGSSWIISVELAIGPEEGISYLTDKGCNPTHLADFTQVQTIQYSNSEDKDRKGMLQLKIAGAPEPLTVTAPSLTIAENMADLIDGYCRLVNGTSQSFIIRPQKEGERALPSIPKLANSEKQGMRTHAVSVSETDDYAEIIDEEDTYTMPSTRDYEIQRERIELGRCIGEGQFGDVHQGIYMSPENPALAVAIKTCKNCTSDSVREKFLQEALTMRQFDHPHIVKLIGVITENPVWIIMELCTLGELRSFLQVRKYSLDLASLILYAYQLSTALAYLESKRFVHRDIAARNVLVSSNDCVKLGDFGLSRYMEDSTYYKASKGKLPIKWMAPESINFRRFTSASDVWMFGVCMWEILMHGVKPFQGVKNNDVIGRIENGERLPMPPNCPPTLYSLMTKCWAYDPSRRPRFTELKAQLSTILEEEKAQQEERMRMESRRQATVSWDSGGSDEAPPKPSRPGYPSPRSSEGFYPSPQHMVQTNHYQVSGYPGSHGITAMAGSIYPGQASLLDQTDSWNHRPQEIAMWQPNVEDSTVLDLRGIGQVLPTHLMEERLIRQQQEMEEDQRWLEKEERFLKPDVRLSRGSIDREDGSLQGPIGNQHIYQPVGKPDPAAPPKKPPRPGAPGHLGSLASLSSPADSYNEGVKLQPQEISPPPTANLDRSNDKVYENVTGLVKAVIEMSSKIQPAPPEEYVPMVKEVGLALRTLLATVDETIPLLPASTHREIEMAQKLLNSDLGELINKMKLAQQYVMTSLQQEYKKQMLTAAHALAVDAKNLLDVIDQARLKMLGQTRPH

[6] = target: T2, Dual specificity mitogen-activated protein kinase kinase 4 (Homo sapiens) (UniProt P45985); experiment: Selectivity interaction (KinomeScan (DiscoverX)) EUB0000045b MAP2K4
T2 sequence (whole entry): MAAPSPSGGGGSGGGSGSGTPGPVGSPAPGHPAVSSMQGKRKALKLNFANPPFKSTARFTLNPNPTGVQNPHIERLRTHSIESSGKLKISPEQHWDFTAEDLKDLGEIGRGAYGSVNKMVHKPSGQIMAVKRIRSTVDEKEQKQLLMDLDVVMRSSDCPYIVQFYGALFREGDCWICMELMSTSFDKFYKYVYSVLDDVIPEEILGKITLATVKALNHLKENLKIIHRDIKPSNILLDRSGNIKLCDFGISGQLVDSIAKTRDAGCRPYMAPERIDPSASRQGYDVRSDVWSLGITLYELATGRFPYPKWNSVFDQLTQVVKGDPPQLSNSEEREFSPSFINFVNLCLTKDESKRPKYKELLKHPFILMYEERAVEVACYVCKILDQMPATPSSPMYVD

[7] = target: T3, Serine/threonine-protein kinase D3 (Homo sapiens) (UniProt O94806); experiment: Selectivity interaction (KinomeScan (DiscoverX)) EUB0001079a PRKD3; conditions: at 1 µM
T3 sequence (whole entry): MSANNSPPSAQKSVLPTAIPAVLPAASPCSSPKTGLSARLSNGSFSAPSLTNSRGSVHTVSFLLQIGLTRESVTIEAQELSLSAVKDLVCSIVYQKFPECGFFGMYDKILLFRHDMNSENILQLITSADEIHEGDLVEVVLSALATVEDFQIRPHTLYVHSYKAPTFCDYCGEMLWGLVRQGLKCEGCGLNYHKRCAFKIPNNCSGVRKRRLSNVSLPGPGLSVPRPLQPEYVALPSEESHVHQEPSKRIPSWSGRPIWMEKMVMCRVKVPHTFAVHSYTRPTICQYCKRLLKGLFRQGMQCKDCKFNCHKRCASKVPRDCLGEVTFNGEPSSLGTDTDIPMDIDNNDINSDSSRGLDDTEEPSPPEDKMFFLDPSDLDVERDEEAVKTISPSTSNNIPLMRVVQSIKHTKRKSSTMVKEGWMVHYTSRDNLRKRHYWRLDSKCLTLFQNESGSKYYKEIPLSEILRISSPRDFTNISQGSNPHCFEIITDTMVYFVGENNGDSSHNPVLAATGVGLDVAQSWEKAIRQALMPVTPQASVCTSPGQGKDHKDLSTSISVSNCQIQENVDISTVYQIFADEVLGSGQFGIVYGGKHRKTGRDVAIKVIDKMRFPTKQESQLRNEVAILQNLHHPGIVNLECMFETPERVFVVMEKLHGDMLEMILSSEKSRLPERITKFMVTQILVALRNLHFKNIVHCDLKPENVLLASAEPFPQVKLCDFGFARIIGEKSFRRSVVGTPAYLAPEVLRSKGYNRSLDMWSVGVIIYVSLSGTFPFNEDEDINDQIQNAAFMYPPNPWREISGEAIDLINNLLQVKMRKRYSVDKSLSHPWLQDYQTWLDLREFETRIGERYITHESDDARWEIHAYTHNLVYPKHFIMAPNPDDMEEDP

[8] = target: DNA (cytosine-5)-methyltransferase 3B (Homo sapiens) (UniProt Q9UBC3); experiment: Selectivity interaction (Transferase panel (protein, RNA, and DNA methyltransferases. and EP300 (acetyltransferase))) EUB0000270b DNMT3B
[9] = target: Mitogen-activated protein kinase 3 (Homo sapiens, UniProt P27361); experiment: Selectivity interaction (KinomeScan (DiscoverX)) EUB0000618a MAPK3; conditions: at 10 µM
Chain of Mitogen-activated protein kinase 3 (P27361 whole entry): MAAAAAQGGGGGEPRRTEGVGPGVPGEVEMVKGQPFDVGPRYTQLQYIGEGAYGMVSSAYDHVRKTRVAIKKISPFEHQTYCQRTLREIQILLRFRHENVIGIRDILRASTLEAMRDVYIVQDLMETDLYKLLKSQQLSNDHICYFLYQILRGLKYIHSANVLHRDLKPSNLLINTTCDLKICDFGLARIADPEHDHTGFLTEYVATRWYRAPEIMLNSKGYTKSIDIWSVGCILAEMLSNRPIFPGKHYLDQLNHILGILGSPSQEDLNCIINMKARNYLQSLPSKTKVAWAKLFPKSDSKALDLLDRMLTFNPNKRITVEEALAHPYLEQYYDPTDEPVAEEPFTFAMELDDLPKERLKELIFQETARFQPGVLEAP

[10] = target: Serine/threonine-protein kinase Nek6 (Homo sapiens) (UniProt Q9HC98); experiment: Selectivity interaction (ActivX KiNativ screen (ex vivo kinase selectivity in human PBMCs)) EUB0001619a NEK6; assay type: cell-based; conditions: PBMC, at 1 µM
Chain of Serine/threonine-protein kinase Nek6 (Homo sapiens) (Q9HC98 whole entry): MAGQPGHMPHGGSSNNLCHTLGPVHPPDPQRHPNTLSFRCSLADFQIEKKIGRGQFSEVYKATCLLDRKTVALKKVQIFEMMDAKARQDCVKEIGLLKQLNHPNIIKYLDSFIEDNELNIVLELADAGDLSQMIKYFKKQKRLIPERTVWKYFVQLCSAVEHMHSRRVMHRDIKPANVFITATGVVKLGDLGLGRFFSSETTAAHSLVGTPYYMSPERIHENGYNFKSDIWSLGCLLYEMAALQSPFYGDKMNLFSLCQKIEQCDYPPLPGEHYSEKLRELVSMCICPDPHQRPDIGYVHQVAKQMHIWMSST

SMILES: CNC(=O)Nc1ccc(-c2nc(N3CC4CCC(C3)O4)c3cnn(C4CCC5(CC4)OCCO5)c3n2)cc1
- % of control [1]: 100%

SMILES: C=CC(=O)Nc1cccc(C(=O)Nc2ccc(Nc3cc(-c4[nH]c(SC)nc4C)ccn3)cc2)c1
- % of control ([2]; at 1 µM): 92%
- % of control ([2]; at 5 µM): 76%

SMILES: Cc1cc(F)c(C(=O)Nc2cccc(-c3nncn3C(C)C)n2)cc1-n1cnc(C2CC2)c1
- % of control [3]: 100%
- % of control [4]: 85%

SMILES: CN(C(=O)c1cnn2cccnc12)c1cc2c(cc1N1CCOCC1)C(=O)N(C[C@@H](F)C(C)(C)O)C2
- dTM [5]: 0 K

SMILES: CCc1cc(Nc2nccc(-c3c(-c4ccc(OC)c(C(=O)Nc5c(F)cccc5F)c4)nc4ccccn34)n2)c(OC)cc1N1CCC(N2CCN(S(C)(=O)=O)CC2)CC1
- % of inhibition (Focal adhesion kinase 1): 51%

SMILES: C=CC(=O)Nc1cc(-n2c(=O)ccc3cnc4ccc(-c5ccc(NS(C)(=O)=O)cc5)cc4c32)ccc1C
- % of control ([6]; at 1 µM): 100%
- % of control ([6]; at 10 µM): 4.9%

SMILES: Nc1cnc(N2CCc3cc(S(=O)(=O)Nc4c(F)cc(Cl)cc4F)cc(N4CCCC4=O)c32)nc1 [TP-020n]
- % of control [7]: 88%

SMILES: Cc1cc(CN)cc(C)c1-c1ncn(C)c1-c1cncn1C
- % activity ([8]; at 1 µM): > 90%
- % activity ([8]; at 10 µM): > 80%

SMILES: O[C@H]1CC[C@H](Nc2ncc3nc(Nc4c(F)cc(F)cc4F)n([C@H]4CCOC4)c3n2)CC1
- % of control [9]: 32%

SMILES: N#Cc1cccc(-c2c[nH]c3ncnc(N4CCOCC4)c23)c1
- % of inhibition [10]: -5%
